Values of other authors as cited in US4994542A, “Surgical adhesive” (Asahi Glass Co., Ltd., priority 1988, dated 1991).

Assays:
[1] = hydrolysis products of TDI and MDI
[2] = aromatic polyisocyanates, general statement

Q: Which “activity in a microbial mutagenicity test (Ames test)” value [1] does the source give for diaminodiphenylmethane here?
A: high activity

Q: For diphenylmethane diisocyanates [MDI], which mutagenic activity [2] is on record?
A: high mutagenic activity

Q: For tolylene diamine, which “activity in a microbial mutagenicity test (Ames test)” value [1] is on record?
A: high activity

Q: With tolylene diisocyanates [TDI] as the substance, how does the mutagenic activity [2] read?
A: high mutagenic activity
